Assay results reported in PubChem BioAssay AID256 (DTP/NCI, 2004).
“And” between values parts separate entries of the source, which are not always exact repeats. Equal entries are not always repeated. Inconclusive results and toxic doses are left out.

System: CD2F1 mice, L1210 leukemia ip, survival T/C
Test: NCI In Vivo Anticancer Drug Screen. Data for tumor model L1210 Leukemia (intraperitoneal) in CD2F1 (CDF1) mice
Conditions: higher = longer survival
In short: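 Compound-dosed mice with transplantable tumor versus matched vehicle controls; endpoint ratio T/C reported.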

[1] = endpoint: mean survival time, dose: 100.0 mg/kg/injection, schedule: Q04DX002 (ip), vehicle: saline with Tween-80
[2] = endpoint: mean survival time, dose: 200.0 mg/kg/injection, schedule: Q04DX002 (ip), vehicle: saline with Tween-80
[3] = endpoint: mean survival time, dose: 400.0 mg/kg/injection, schedule: Q04DX002 (ip), vehicle: saline with Tween-80
[4] = endpoint: mean survival time, dose: 25.0 mg/kg/injection, schedule: Q04DX003 (ip), vehicle: other
[5] = endpoint: mean survival time, dose: 50.0 mg/kg/injection, schedule: Q04DX003 (ip), vehicle: other
[6] = endpoint: mean survival time, dose: 200.0 mg/kg/injection, schedule: Q04DX003 (ip), vehicle: other
[7] = endpoint: mean survival time, dose: 75.0 mg/kg/injection, schedule: Q01DX001 (ip), vehicle: other
[8] = endpoint: mean survival time, dose: 150.0 mg/kg/injection, schedule: Q01DX001 (ip), vehicle: other
[9] = endpoint: mean survival time, dose: 100.0 mg/kg/injection, schedule: Q01DX009 (ip), vehicle: saline with Tween-80
[10] = endpoint: mean survival time, dose: 100.0 mg/kg/injection, schedule: Q04DX003 (ip), vehicle: saline with Tween-80
[11] = endpoint: mean survival time, dose: 200.0 mg/kg/injection, schedule: Q01DX009 (ip), vehicle: saline with Tween-80
[12] = endpoint: mean survival time, dose: 200.0 mg/kg/injection, schedule: Q04DX003 (ip), vehicle: saline with Tween-80
[13] = endpoint: mean survival time, dose: 400.0 mg/kg/injection, schedule: Q01DX009 (ip), vehicle: saline with Tween-80
[14] = endpoint: mean survival time, dose: 400.0 mg/kg/injection, schedule: Q04DX003 (ip), vehicle: saline with Tween-80
[15] = endpoint: mean survival time, dose: 100.0 mg/kg/injection, schedule: Q04DX003 (ip), vehicle: saline
[16] = endpoint: mean survival time, dose: 200.0 mg/kg/injection, schedule: Q04DX003 (ip), vehicle: saline
[17] = endpoint: mean survival time, dose: 200.0 mg/kg/injection, schedule: Q01DX001 (ip), vehicle: saline with Tween-80
[18] = endpoint: mean survival time, dose: 400.0 mg/kg/injection, schedule: Q01DX001 (ip), vehicle: saline with Tween-80
[19] = endpoint: mean survival time, dose: 100.0 mg/kg/injection, schedule: Q01DX001 (ip), vehicle: saline with Tween-80

For `CSC(=NC#N)SC`, the T/C (endpoint: mean survival time, dose: 3.13 mg/kg/injection, schedule: Q01DX001 (ip), vehicle: Klucel (hydroxypropylcellulose) (HPC)) was 101 % of control and the T/C (endpoint: mean survival time, dose: 6.25 mg/kg/injection, schedule: Q01DX001 (ip), vehicle: Klucel (hydroxypropylcellulose) (HPC)) was 104 % of control.
For `COc1c(C)c2c(c(OC(C)=O)c1CC(=O)O)C(=O)OC2`, the T/C [1] was 108 % of control, the T/C [2] was 100 % of control and the T/C [3] was 100 % of control.
`O=C(O)/C=N/NS(=O)(=O)c1ccc(Cl)cc1` was tested, and the T/C (endpoint: mean survival time, dose: 12.5 mg/kg/injection, schedule: Q04DX003 (ip), vehicle: other) was 97 % of control, the T/C [4] was 105 % of control and the T/C [5] was 118 % of control and 122 % of control. For the same molecule, the T/C [6] was 174 % of control.
`CC1(O)CSC(C)(O)CS1` (stereo not drawn) was tested, and the T/C (endpoint: mean survival time, dose: 6.25 mg/kg/injection, schedule: Q04DX002 (ip), vehicle: saline with Tween-80) was 104 % of control, the T/C (endpoint: mean survival time, dose: 12.5 mg/kg/injection, schedule: Q04DX002 (ip), vehicle: saline with Tween-80) was 100 % of control and the T/C (endpoint: mean survival time, dose: 25.0 mg/kg/injection, schedule: Q04DX002 (ip), vehicle: saline with Tween-80) was 104 % of control.
`C=Cc1ccc(OC2OC(COC(C)=O)C(OC3OC(COC(C)=O)C(OC(C)=O)C(OC(C)=O)C3OC(C)=O)C(OC(C)=O)C2OC(C)=O)cc1` (stereo not drawn) was tested, and the T/C [7] was 92 % of control, the T/C [8] was 95 % of control and the T/C (endpoint: mean survival time, dose: 300.0 mg/kg/injection, schedule: Q01DX001 (ip), vehicle: other) was 92 % of control.
For `CC(C)(C)OOCC1CO1` (stereo not drawn), the T/C [9] was 92 % of control, the T/C [10] was 98 % of control and the T/C [11] was 94 % of control. For the same molecule, the T/C [12] was 105 % of control, the T/C [13] was 98 % of control and the T/C [14] was 96 % of control.
For `CCCCCCCC/C=C/CCCCCCCC(=O)NCCCCCCNC(=O)CCCCCCC/C=C/CCCCCCCC`, the T/C (endpoint: mean survival time, dose: 100.0 mg/kg/injection, schedule: Q01DX001 (ip), vehicle: other) was 94 % of control, the T/C (endpoint: mean survival time, dose: 200.0 mg/kg/injection, schedule: Q01DX001 (ip), vehicle: other) was 97 % of control and the T/C (endpoint: mean survival time, dose: 400.0 mg/kg/injection, schedule: Q01DX001 (ip), vehicle: other) was 102 % of control.
In the case of `CCNc1ncc2ccccc2c1-c1ccc(NCCCl)cc1`, the T/C [4] was 98 % of control, the T/C [5] was 95 % of control and the T/C (endpoint: mean survival time, dose: 100.0 mg/kg/injection, schedule: Q04DX003 (ip), vehicle: other) was 87 % of control. The T/C [6] was 105 % of control and the T/C (endpoint: mean survival time, dose: 400.0 mg/kg/injection, schedule: Q04DX003 (ip), vehicle: other) was 90 % of control.
With `O=Cc1[nH]c(=S)[nH]c(=O)c1CCCc1ccccc1` the T/C (endpoint: mean survival time, dose: 25.0 mg/kg/injection, schedule: Q04DX002 (ip), vehicle: Klucel (hydroxypropylcellulose) (HPC)) was 96 % of control, the T/C (endpoint: mean survival time, dose: 50.0 mg/kg/injection, schedule: Q04DX002 (ip), vehicle: Klucel (hydroxypropylcellulose) (HPC)) was 104 % of control and the T/C (endpoint: mean survival time, dose: 100.0 mg/kg/injection, schedule: Q04DX002 (ip), vehicle: Klucel (hydroxypropylcellulose) (HPC)) was 93 % of control. The T/C (endpoint: mean survival time, dose: 200.0 mg/kg/injection, schedule: Q04DX002 (ip), vehicle: Klucel (hydroxypropylcellulose) (HPC)) was 94 % of control and the T/C (endpoint: mean survival time, dose: 400.0 mg/kg/injection, schedule: Q04DX002 (ip), vehicle: Klucel (hydroxypropylcellulose) (HPC)) was 90 % of control.
`CCO/C=N/NC(=O)CNC(=O)C=[N+]=[N-]` was tested, and the T/C [10] was 108 % of control, the T/C [12] was 103 % of control and the T/C [14] was 108 % of control.
With `NC(=O)COc1ccc(F)cc1` the T/C [1] was 97 % of control, the T/C [2] was 90 % of control and the T/C [3] was 101 % of control.
`NC1CONC1=O` (stereo not drawn) was tested, and the T/C [15] was 94 % of control, the T/C [16] was 97 % of control and the T/C (endpoint: mean survival time, dose: 400.0 mg/kg/injection, schedule: Q04DX003 (ip), vehicle: saline) was 96 % of control.
`OC12Cc3ccccc3C1=NN(c1ccccc1)C2c1ccccc1` (stereo not drawn) was tested, and the T/C [9] was 91 % of control and the T/C [13] was 86 % of control.
For `CCOC(=O)c1cc2ccccc2n1-c1ccccc1`, the T/C [10] was 95 % of control, the T/C [12] was 97 % of control and the T/C [14] was 95 % of control.
For `Nc1nc(N)c(-c2ccc(Cl)c(Cl)c2)c(/C=C/C=C/c2cccnc2)n1`, the T/C (endpoint: mean survival time, dose: 50.0 mg/kg/injection, schedule: Q01DX009 (ip), vehicle: saline with Tween-80) was 110 % of control and the T/C [9] was 95 % of control.
With `COc1ccc2nc3cc(Cl)ccc3c(Nc3cccc(NS(C)(=O)=O)c3)c2n1` the T/C (endpoint: mean survival time, dose: 12.5 mg/kg/injection, schedule: Q01DX009 (ip), vehicle: other) was 100 % of control, the T/C (endpoint: mean survival time, dose: 25.0 mg/kg/injection, schedule: Q01DX009 (ip), vehicle: other) was 93 % of control and the T/C (endpoint: mean survival time, dose: 50.0 mg/kg/injection, schedule: Q01DX009 (ip), vehicle: other) was 89 % of control. The T/C (endpoint: mean survival time, dose: 100.0 mg/kg/injection, schedule: Q01DX009 (ip), vehicle: other) was 93 % of control and the T/C (endpoint: mean survival time, dose: 200.0 mg/kg/injection, schedule: Q01DX009 (ip), vehicle: other) was 93 % of control.
For `CCOC(=O)c1ccc(N)cc1`, the T/C (endpoint: mean survival time, dose: 12.5 mg/kg/injection, schedule: Q01DX001 (ip), vehicle: saline with Tween-80) was 106 % of control, the T/C (endpoint: mean survival time, dose: 25.0 mg/kg/injection, schedule: Q01DX001 (ip), vehicle: saline with Tween-80) was 100 % of control and the T/C (endpoint: mean survival time, dose: 50.0 mg/kg/injection, schedule: Q01DX001 (ip), vehicle: saline with Tween-80) was 100 % of control. For the same molecule, the T/C [7] was 97 % of control, the T/C (endpoint: mean survival time, dose: 75.0 mg/kg/injection, schedule: Q04DX003 (ip), vehicle: saline with Tween-80) was 93 % of control and the T/C [8] was 103 % of control. The T/C (endpoint: mean survival time, dose: 150.0 mg/kg/injection, schedule: Q04DX003 (ip), vehicle: saline with Tween-80) was 100 % of control, the T/C [17] was 226 % of control and 96 % of control and the T/C [18] was 100 % of control and 103 % of control.
`CC(=O)Nc1ccc2c(c1)C(N1CC3CCC(CC3)C1)c1ccccc1-2` (stereo not drawn) was tested, and the T/C (endpoint: mean survival time, dose: 50.0 mg/kg/injection, schedule: Q04DX003 (ip), vehicle: saline) was 105 % of control, the T/C [15] was 103 % of control and the T/C [16] was 103 % of control.
`O=c1[nH]c(=O)n(C2CC(O)C(CO)O2)cc1COCc1ccccc1` (stereo not drawn) was tested, and the T/C (endpoint: mean survival time, dose: 100.0 mg/kg/injection, schedule: Q01DX005 (ip), vehicle: saline) was 95 % of control and the T/C (endpoint: mean survival time, dose: 200.0 mg/kg/injection, schedule: Q01DX005 (ip), vehicle: saline) was 105 % of control and 97 % of control.
With `Cc1ccc(C(C)C)c(OCCCBr)c1` the T/C (endpoint: mean survival time, dose: 25.0 mg/kg/injection, schedule: Q04DX003 (ip), vehicle: saline with Tween-80) was 101 % of control, the T/C (endpoint: mean survival time, dose: 50.0 mg/kg/injection, schedule: Q04DX003 (ip), vehicle: saline with Tween-80) was 95 % of control and the T/C [10] was 94 % of control and 95 % of control.
With `C=CC/C(C)=C/C=C/C(C)C(=O)O` (stereo not drawn) the T/C [9] was 100 % of control, the T/C [10] was 98 % of control and the T/C [11] was 94 % of control. For the same molecule, the T/C [12] was 93 % of control, the T/C [13] was 104 % of control and the T/C [14] was 95 % of control.
In the case of `CCCCCCCCCCCCCCCCCCNC(=O)C[N+](C)(C)Cc1ccccc1`, the T/C (endpoint: mean survival time, dose: 6.25 mg/kg/injection, schedule: Q04DX003 (ip), vehicle: saline with Tween-80) was 103 % of control and the T/C (endpoint: mean survival time, dose: 12.5 mg/kg/injection, schedule: Q04DX003 (ip), vehicle: saline with Tween-80) was 97 % of control.
For `CCOC(=O)N1C=Cc2ccccc2C1/C(N)=N/O` (stereo not drawn), the T/C [19] was 98 % of control, the T/C (endpoint: mean survival time, dose: 100.0 mg/kg/injection, schedule: Q01DX009 (ip), vehicle: Klucel (hydroxypropylcellulose) (HPC)) was 96 % of control and the T/C [17] was 95 % of control. For the same molecule, the T/C (endpoint: mean survival time, dose: 200.0 mg/kg/injection, schedule: Q01DX009 (ip), vehicle: Klucel (hydroxypropylcellulose) (HPC)) was 91 % of control, the T/C [18] was 94 % of control and the T/C (endpoint: mean survival time, dose: 400.0 mg/kg/injection, schedule: Q01DX009 (ip), vehicle: Klucel (hydroxypropylcellulose) (HPC)) was 91 % of control.
`O=C1CCC([N+](=O)[O-])C(c2cccc3ccccc23)N1` (stereo not drawn) was tested, and the T/C [19] was 94 % of control, the T/C [17] was 94 % of control and the T/C [18] was 97 % of control.
For `N#CC(C(=O)N1CCCC1)=C(S)S`, the T/C [9] was 102 % of control, the T/C [10] was 100 % of control and the T/C [11] was 101 % of control. The T/C [12] was 100 % of control, the T/C [13] was 102 % of control and the T/C [14] was 103 % of control.
`O=c1[nH]cnc2n[nH]c(Br)c12` was tested, and the T/C (endpoint: median survival time, dose: 50.0 mg/kg/injection, schedule: Q01DX005 (ip), vehicle: saline with Tween-80) was 107 % of control, the T/C (endpoint: median survival time, dose: 100.0 mg/kg/injection, schedule: Q01DX005 (ip), vehicle: saline with Tween-80) was 111 % of control and the T/C (endpoint: median survival time, dose: 200.0 mg/kg/injection, schedule: Q01DX005 (ip), vehicle: saline with Tween-80) was 119 % of control.
